In brackets after ≈: the same amount, converted by molar mass.
Legend:
Plasmodium falciparum [1] = assay: (§1) In vitro antimalarial activity for Plasmodium falciparum D6; assay type: functional
Plasmodium falciparum [2] = assay: (§2) In vitro antimalarial activity for Plasmodium falciparum W2; assay type: functional
Plasmodium falciparum [3] = assay: (§3) In vitro antimalarial activity for Plasmodium falciparum TM91C235; assay type: functional
Plasmodium yoelii [4] = assay: In vitro antimalarial activity dosed at 1 mg/kg against exoerythrocytic Plasmodium yoelii in mice (Mus musculus) hepatocytes; settings: Hepatocyte
Plasmodium yoelii [5] = assay: In vitro antimalarial activity dosed at 10 mg/kg against exoerythrocytic Plasmodium yoelii in mice (Mus musculus) hepatocytes; settings: Hepatocyte
Plasmodium yoelii [6] = assay: Prophylactic activity in infected mouse at 10 mg/kg peroral administration, expressed as no of organisms survived; Total organisms= 5; settings: route oral
Plasmodium yoelii [7] = assay: Prophylactic activity in infected mouse at 40 mg/kg peroral administration, expressed as no of organisms survived; Total organisms= 5; settings: route oral
Plasmodium yoelii [8] = assay: Prophylactic activity in infected mouse at 160 mg/kg peroral administration, expressed as no of organisms survived; Total organisms= 5; settings: route oral
Plasmodium falciparum [9] = assay: as §1; assay type: functional, organism-based
Plasmodium falciparum [10] = assay: as §2; assay type: functional, organism-based
Plasmodium falciparum [11] = assay: as §3; assay type: functional, organism-based
Plasmodium yoelii [12] = assay: Prophylactic activity in infected mouse at 5 mg/kg peroral administration, expressed as no of organisms survived; Total organisms= 5; settings: route oral
Plasmodium yoelii [13] = assay: Prophylactic activity in infected mouse at 20 mg/kg peroral administration, expressed as no of organisms survived; Total organisms= 5; settings: route oral
Plasmodium yoelii [14] = assay: Prophylactic activity in infected mouse at 80 mg/kg peroral administration, expressed as no of organisms survived; Total organisms= 5; settings: route oral
Plasmodium yoelii [15] = assay: Prophylactic activity in infected mouse at 2.5 mg/kg peroral administration, expressed as no of organisms survived; Total organisms= 5; settings: route oral
Plasmodium yoelii [16] = assay: Prophylactic activity in infected mouse at 1.25 mg/kg peroral administration, expressed as no of organisms survived; Total organisms= 5; settings: route oral
Plasmodium yoelii [17] = assay: Prophylactic activity in infected mouse at 160 mg/kg peroral administration, expressed as no of organisms survived; Toxicity death
Plasmodium yoelii [18] = assay: Prophylactic activity in infected mouse at 160 mg/kg peroral administration, expressed as no of organisms survived; Not dosed
Plasmodium yoelii [19] = assay: Prophylactic activity in infected mouse at 1.23 mg/kg peroral administration, expressed as no of organisms survived; Total organisms= 5; settings: route oral

Compound	inhibition in vivo at 1 mg/kg (Plasmodium yoelii [4]) [%]	inhibition in vivo at 10 mg/kg (Plasmodium yoelii [5]) [%]	Activity (Plasmodium yoelii [6])	Activity (Plasmodium yoelii [7])	Activity (Plasmodium yoelii [8])	Activity (Plasmodium yoelii [12])	Activity (Plasmodium yoelii [15])	also measured
CCN(CC)CCCC(C)Nc1ccnc2cc(Cl)ccc12 (centres undefined) [CHLOROQUINE]	–	–	–	–	–	–	–	IC90 (Plasmodium falciparum [1]): 0.00533 µg/mL (≈ 0.0167 µM); IC90 (Plasmodium falciparum [2]): 0.199 µg/mL (≈ 0.621 µM); IC90 (Plasmodium falciparum [3]): 0.0552 µg/mL (≈ 0.173 µM)
CC(C)N1C(=O)C(=O)N=C1N/C(=N\C(=O)OC(C)(C)C)Nc1ccc(Cl)c(Cl)c1	69	99	0	2	5	–	–	–
CC(C)N1C(=O)C(=O)N=C1NC(=N)Nc1ccc(Cl)c(Cl)c1	50	91	–	–	–	–	–	IC50 (Plasmodium falciparum [9]): 2.97 µg/mL (≈ 8.68 µM); IC50 (Plasmodium falciparum [10]): 2.66 µg/mL (≈ 7.79 µM); IC50 (Plasmodium falciparum [11]): 2.59 µg/mL (≈ 7.57 µM); IC90 (Plasmodium falciparum [1]): 12.1 µg/mL (≈ 35.3 µM); IC90 (Plasmodium falciparum [2]): 10.9 µg/mL (≈ 31.8 µM); IC90 (Plasmodium falciparum [3]): 11.3 µg/mL (≈ 33.2 µM)
CCCCCCOC(=O)N/C(=N/C(C)C)NC1=NC(=O)C(=O)N1c1ccc(Cl)c(Cl)c1	–	–	2	3	–	2	–	Activity (Plasmodium yoelii [13]): 4; Activity (Plasmodium yoelii [14]): 5
CCO[C@H]1O[C@@H]2O[C@@]3(C)CC[C@H]4[C@H](C)CC[C@@H]([C@H]1C)[C@@]24OO3 [ARTEMOTIL]	–	–	0	0	0	–	–	–
CC(C)/N=C(/NC(=O)OCc1ccccc1)NC1=NC(=O)C(=O)N1c1ccc(Cl)c(Cl)c1	6.7	87	2	2	3	3	0	–
CC(C)/N=C(/NC(=O)OC(C)(C)C)NC1=NC(=O)C(=O)N1c1ccc(Cl)c(Cl)c1	–	–	–	4	5	4	2	Activity (Plasmodium yoelii [16]): 2
Cc1oc(=O)oc1COC(=O)/N=C(\NC1=NC(=O)C(=O)N1C(C)C)Nc1ccc(Cl)c(Cl)c1	–	–	2	2	3	–	0	–
O[C@@H](c1cc(C(F)(F)F)nc2c(C(F)(F)F)cccc12)C1CCCCN1 (some centres undefined) [MEFLOQUINE]	–	–	–	–	–	–	–	IC90 (Plasmodium falciparum [1]): 0.0134 µg/mL (≈ 0.0355 µM); IC90 (Plasmodium falciparum [2]): 0.00401 µg/mL (≈ 0.0106 µM); IC90 (Plasmodium falciparum [3]): 0.044 µg/mL (≈ 0.116 µM)
CCOC(=O)/N=C(\NC1=NC(=O)C(=O)N1C(C)C)Nc1ccc(Cl)c(Cl)c1	63	99	2	4	5	–	0	–
COc1cc(C)c2c(Oc3cccc(C(F)(F)F)c3)c(OC)cc(NC(C)CCCN)c2n1 (centres undefined) [TAFENOQUINE]	39	96	5	5	–	5	3	Activity (Plasmodium yoelii [17]): Toxicity death
CC(C)N1C(=O)C(=O)N=C1N/C(=N\C(=O)OCc1ccccc1)Nc1ccc(Cl)c(Cl)c1	25	43	–	0	0	–	–	–
CC(C)COC(=O)/N=C(\NC1=NC(=O)C(=O)N1C(C)C)Nc1ccc(Cl)c(Cl)c1	–	–	0	2	5	–	–	–
COc1cc(NC(C)CCCN)c2ncccc2c1 (centres undefined) [PRIMAQUINE]	–	–	0	2	5	–	–	–
C=CCCOC(=O)/N=C(\NC1=NC(=O)C(=O)N1C(C)C)Nc1ccc(Cl)c(Cl)c1	–	–	0	0	1	–	–	–
CCOC(=O)N/C(=N/C(C)C)NC1=NC(=O)C(=O)N1c1ccc(Cl)c(Cl)c1	10	98	1	5	–	1	–	Activity (Plasmodium yoelii [13]): 3; Activity (Plasmodium yoelii [14]): 5
C=CCCOC(=O)N/C(=N/C(C)C)NC1=NC(=O)C(=O)N1c1ccc(Cl)c(Cl)c1	–	–	–	–	–	–	–	Activity (Plasmodium yoelii [18]): Not Dosed
CCCCCCOC(=O)/N=C(\NC1=NC(=O)C(=O)N1C(C)C)Nc1ccc(Cl)c(Cl)c1	–	–	0	2	1	–	–	–
CC(C)N1C(=O)C(=O)N=C1N/C(=N\C(=O)OCCOCc1ccccc1)Nc1ccc(Cl)c(Cl)c1	–	–	0	0	1	–	–	–
CC(C)COC(=O)N/C(=N/C(C)C)NC1=NC(=O)C(=O)N1c1ccc(Cl)c(Cl)c1	–	–	5	5	5	5	1	Activity (Plasmodium yoelii [19]): 0
